Experimental data reported in patent US11103510B2, “JAK1 pathway inhibitors for the treatment of cytokine-related disorders” (Incyte Corporation, priority 2018, dated 2021).

Assays:
[1] = molecular target: human JAK2 (a.a. 828-1132) (Homo sapiens (Human), UniProt O60674); assay: In vitro JAK kinase assay (HTRF), JAK2, for JAK2/JAK1 ratio; format: biochemical; conditions: IC50 ratio, 1 mM ATP
Procedure: (§1) The catalytic activity of JAK1, JAK2 or JAK3 was assayed by measuring the phosphorylation of a biotinylated peptide. The phosphorylated peptide was detected by homogenous time resolved fluorescence (HTRF). […] Reactions are carried out at room temperature for 1 hour and then stopped with 20 μL 45 mM EDTA, 300 nM SA-APC, 6 nM Eu-Py20 in assay buffer (Perkin Elmer, Boston, Mass.). Binding to the Europium labeled antibody takes place for 40 minutes and HTRF signal was measured on a Fusion plate reader (Perkin Elmer, Boston, Mass.).

[2] = molecular target: human JAK1 (a.a. 837-1142) (Homo sapiens, UniProt P23458); assay: In vitro JAK kinase assay (HTRF), JAK1; format: biochemical; conditions: 1 mM ATP
Procedure: as §1

Sequence of human JAK2 (a.a. 828-1132) (O60674 828-1132): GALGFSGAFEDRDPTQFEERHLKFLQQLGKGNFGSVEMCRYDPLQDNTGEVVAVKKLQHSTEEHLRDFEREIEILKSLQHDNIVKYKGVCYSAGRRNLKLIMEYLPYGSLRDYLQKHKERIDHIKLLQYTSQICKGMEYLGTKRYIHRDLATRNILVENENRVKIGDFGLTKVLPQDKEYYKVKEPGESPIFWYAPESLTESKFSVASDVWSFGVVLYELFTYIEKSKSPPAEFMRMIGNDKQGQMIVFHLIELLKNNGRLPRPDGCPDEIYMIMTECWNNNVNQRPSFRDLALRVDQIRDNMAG

SMILES | JAK2/JAK1 [1] | IC50 [2] [nM]
N#CCC(C1CCN(c2cccc(Cl)n2)C1)n1cc(-c2ncnc3[nH]ccc23)cn1 (single isomer, unassigned) [Compound 6, 3-[1-(6-chloropyridin-2-yl)pyrrolidin-3-yl]-3-[4-(7H-pyrrolo[2,3-d]pyrimidin-4-yl)-1H-pyrazol-1-yl]propanenitrile] | >10 | < 10
N#CCC1(n2cc(-c3ncnc4[nH]ccc34)cn2)CN(C2CCN(C(=O)Nc3ccc(F)cc3C(F)(F)F)CC2)C1 [Compound 2, 4-{3-(Cyanomethyl)-3-[4-(7H-pyrrolo[2,3-d]pyrimidin-4-yl)-1H-pyrazol-1-yl]azetidin-1-yl}-N-[4-fluoro-2-(trifluoromethyl)phenyl]piperidine-1-carboxamide] | >10 | < 10
N#CCC1(n2cc(-c3ncnc4[nH]ccc34)cn2)CN(C2CCN(C(=O)c3ccnc(C(F)(F)F)n3)CC2)C1 [Compound 3, [3-[4-(7H-pyrrolo[2,3-d]pyrimidin-4-yl)-1H-pyrazol-1-yl]-1-(1-{[2-(trifluoromethyl)pyrimidin-4-yl]carbonyl}piperidin-4-yl)azetidin-3-yl]acetonitrile] | >10 | < 10
C[C@@H](O)c1nc2cnc3ccsc3c2n1[C@H]1CC[C@H](CC#N)OC1 [Compound 5, ((2R,5S)-5-{2-[(1R)-1-hydroxyethyl]-1H-imidazo[4,5-d]thieno[3,2-b]pyridin-1-yl}tetrahydro-2H-pyran-2-yl)acetonitrile] | >10 | < 100
N#CCC(C1CCN(c2nc3cccnc3o2)C1)n1cc(-c2ncnc3[nH]ccc23)cn1 (stereo not drawn) [Compound 7, 3-(1-[1,3]oxazolo[5,4-b]pyridin-2-ylpyrrolidin-3-yl)-3-[4-(7H-pyrrolo[2,3-d]pyrimidin-4-yl)-1H-pyrazol-1-yl]propanenitrile] | >10 | < 10
N#CCC(CN1CCN(C(=O)c2ccc(C#N)cc2F)CC1)n1cc(-c2ncnc3[nH]ccc23)cn1 (stereo not drawn) [Compound 8, 4-[(4-{3-cyano-2-[4-(7H-pyrrolo[2,3-d]pyrimidin-4-yl)-1H-pyrazol-1-yl]propyl}piperazin-1-yl)carbonyl]-3-fluorobenzonitrile] | >10 | < 10
N#CCC(CN1CCN(C(=O)c2ccc(C#N)cc2F)CC1)n1ccc(-c2ncnc3[nH]ccc23)c1 (stereo not drawn) [Compound 9, 4-[(4-{3-cyano-2-[3-(7H-pyrrolo[2,3-d]pyrimidin-4-yl)-1H-pyrrol-1-yl]propyl}piperazin-1-yl)carbonyl]-3-fluorobenzonitrile] | >10 | < 10
N#CC[C@]1(n2cc(-c3ncnc4[nH]ccc34)cn2)C[C@H](N2CCN(C(=O)c3ccnc(C(F)(F)F)n3)CC2)C1 [Compound 10, [trans-1-[4-(7H-pyrrolo[2,3-d]pyrimidin-4-yl)-1H-pyrazol-1-yl]-3-(4-{[2-(trifluoromethyl)pyrimidin-4-yl]carbonyl}piperazin-1-yl)cyclobutyl]acetonitrile] | >10 | < 10
N#CC[C@]1(n2cc(-c3ncnc4[nH]ccc34)cn2)C[C@H](N2CCC(Oc3cc(CN4CC(O)C4)cc(C(F)(F)F)n3)CC2)C1 [Compound 11, {trans-3-(4-{[4-[(3-hydroxyazetidin-1-yl)methyl]-6-(trifluoromethyl)pyridin-2-yl]oxy}piperidin-1-yl)-1-[4-(7H-pyrrolo[2,3-d]pyrimidin-4-yl)-1H-pyrazol-1-yl]cyclobutyl}acetonitrile] | >10 | < 10
N#CC[C@]1(n2cc(-c3ncnc4[nH]ccc34)cn2)C[C@H](N2CCC(Oc3cc(CN4CCC[C@H]4CO)cc(C(F)(F)F)n3)CC2)C1 [Compound 12, {trans-3-(4-{[4-{[(2S)-2-(hydroxymethyl)pyrrolidin-1-yl]methyl}-6-(trifluoromethyl)pyridin-2-yl]oxy}piperidin-1-yl)-1-[4-(7H-pyrrolo[2,3-d]pyrimidin-4-yl)-1H-pyrazol-1-yl]cyclobutyl}acetonitrile] | >10 | < 10
N#CC[C@]1(n2cc(-c3ncnc4[nH]ccc34)cn2)C[C@H](N2CCC(Oc3cc(CN4CCC[C@@H]4CO)cc(C(F)(F)F)n3)CC2)C1 [Compound 13, {trans-3-(4-{[4-{[(2R)-2-(hydroxymethyl)pyrrolidin-1-yl]methyl}-6-(trifluoromethyl)pyridin-2-yl]oxy}piperidin-1-yl)-1-[4-(7H-pyrrolo[2,3-d]pyrimidin-4-yl)-1H-pyrazol-1-yl]cyclobutyl}acetonitrile] | >10 | < 10
C[C@H](NC(=O)c1cc(F)c(N2CC(CC#N)(n3cc(-c4ncnc5[nH]ccc45)cn3)C2)cc1F)C(F)(F)F [Compound 16, 4-{3-(cyanomethyl)-3-[4-(7H-pyrrolo[2,3-d]pyrimidin-4-yl)-1H-pyrazol-1-yl]azetidin-1-yl}-2,5-difluoro-N-[(1S)-2,2,2-trifluoro-1-methylethyl]benzamide] | >10 | < 10
N#CCC1(n2cc(-c3ncnc4[nH]ccc34)cn2)CN([C@H]2CC[C@@H](Oc3cc(CCO)nc(C(F)(F)F)n3)CC2)C1 [Compound 18, {1-(cis-4-{[6-(2-hydroxyethyl)-2-(trifluoromethyl)pyrimidin-4-yl]oxy}cyclohexyl)-3-[4-(7H-pyrrolo[2,3-d]pyrimidin-4-yl)-1H-pyrazol-1-yl]azetidin-3-yl}acetonitrile] | >10 | < 10
CCNCc1cc(O[C@H]2CC[C@@H](N3CC(CC#N)(n4cc(-c5ncnc6[nH]ccc56)cn4)C3)CC2)nc(C(F)(F)F)c1 [Compound 19, {1-(cis-4-{[4-[(ethylamino)methyl]-6-(trifluoromethyl)pyridin-2-yl]oxy}cyclohexyl)-3-[4-(7H-pyrrolo[2,3-d]pyrimidin-4-yl)-1H-pyrazol-1-yl]azetidin-3-yl}acetonitrile] | >10 | < 10
CC(C)(O)c1cc(O[C@H]2CC[C@@H](N3CC(CC#N)(n4cc(-c5ncnc6[nH]ccc56)cn4)C3)CC2)nc(C(F)(F)F)c1 [Compound 20, {1-(cis-4-{[4-(1-hydroxy-1-methylethyl)-6-(trifluoromethyl)pyridin-2-yl]oxy}cyclohexyl)-3-[4-(7H-pyrrolo[2,3-d]pyrimidin-4-yl)-1H-pyrazol-1-yl]azetidin-3-yl}acetonitrile] | >10 | < 10
N#CCC1(n2cc(-c3ncnc4[nH]ccc34)cn2)CN([C@H]2CC[C@@H](Oc3cc(CN4CC[C@@H](O)C4)cc(C(F)(F)F)n3)CC2)C1 [Compound 21, {1-(cis-4-{[4-{[(3R)-3-hydroxypyrrolidin-1-yl]methyl}-6-(trifluoromethyl)pyridin-2-yl]oxy}cyclohexyl)-3-[4-(7H-pyrrolo[2,3-d]pyrimidin-4-yl)-1H-pyrazol-1-yl]azetidin-3-yl}acetonitrile] | >10 | < 10
N#CCC1(n2cc(-c3ncnc4[nH]ccc34)cn2)CN([C@H]2CC[C@@H](Oc3cc(CN4CC[C@H](O)C4)cc(C(F)(F)F)n3)CC2)C1 [Compound 22, {1-(cis-4-{[4-{[(3S)-3-hydroxypyrrolidin-1-yl]methyl}-6-(trifluoromethyl)pyridin-2-yl]oxy}cyclohexyl)-3-[4-(7H-pyrrolo[2,3-d]pyrimidin-4-yl)-1H-pyrazol-1-yl]azetidin-3-yl}acetonitrile] | >10 | < 10
C[C@@H](CO)NCc1cc(OC2CCN([C@H]3C[C@](CC#N)(n4cc(-c5ncnc6[nH]ccc56)cn4)C3)CC2)nc(C(F)(F)F)c1 [Compound 23, {trans-3-(4-{[4-({[(1S)-2-hydroxy-1-methylethyl]amino}methyl)-6-(trifluoromethyl)pyridin-2-yl]oxy}piperidin-1-yl)-1-[4-(7H-pyrrolo[2,3-d]pyrimidin-4-yl)-1H-pyrazol-1-yl]cyclobutyl}acetonitrile] | >10 | < 10
C[C@@H](O)CNCc1cc(OC2CCN([C@H]3C[C@](CC#N)(n4cc(-c5ncnc6[nH]ccc56)cn4)C3)CC2)nc(C(F)(F)F)c1 [Compound 24, {trans-3-(4-{[4-({[(2R)-2-hydroxypropyl]amino}methyl)-6-(trifluoromethyl)pyridin-2-yl]oxy}piperidin-1-yl)-1-[4-(7H-pyrrolo[2,3-d]pyrimidin-4-yl)-1H-pyrazol-1-yl]cyclobutyl}acetonitrile] | >10 | < 10
C[C@H](O)CNCc1cc(OC2CCN([C@H]3C[C@](CC#N)(n4cc(-c5ncnc6[nH]ccc56)cn4)C3)CC2)nc(C(F)(F)F)c1 [Compound 25, {trans-3-(4-{[4-({[(2S)-2-hydroxypropyl]amino}methyl)-6-(trifluoromethyl)pyridin-2-yl]oxy}piperidin-1-yl)-1-[4-(7H-pyrrolo[2,3-d]pyrimidin-4-yl)-1H-pyrazol-1-yl]cyclobutyl}acetonitrile] | >10 | < 10
N#CC[C@]1(n2cc(-c3ncnc4[nH]ccc34)cn2)C[C@H](N2CCC(Oc3cc(CCO)cc(C(F)(F)F)n3)CC2)C1 [Compound 26, {trans-3-(4-{[4-(2-hydroxyethyl)-6-(trifluoromethyl)pyridin-2-yl]oxy}piperidin-1-yl)-1-[4-(7H-pyrrolo[2,3-d]pyrimidin-4-yl)-1H-pyrazol-1-yl]cyclobutyl}acetonitrile] | >10 | < 10
